Measured values from ChEMBL document CHEMBL1122790, “Novel opiates and antagonists. 6. 7-Alkyl-6,7-didehydromorphinans” (1984).
Active and inactive are the calls of the source. The calls are words filed in the database; no cut-off is given here.

Tests used:
Mus musculus [1] = experiment: Analgesic activity in the mouse acetic acid writhing test following s.c. administration.; format: functional; settings: sc
Rattus norvegicus [2] = experiment: Compound was evaluated for its analgesic activity by Rat-tail-flick test after subcutaneous administration; format: functional; settings: for ED50: sc
Mus musculus [3] = experiment: Compound was evaluated for its analgesic activity by mouse acetic acid writhing test after subcutaneous administration at a dose 10 mg/kg; Ia= inactive; format: functional, organism-based; set-up: dose 10 mg/kg
Rattus norvegicus [4] = experiment: Compound was evaluated for its analgesic activity by Rat-tail-flick test after subcutaneous administration at a dose 10 mg/kg; Ia= inactive; format: functional, organism-based; set-up: dose 10 mg/kg
Mus musculus [5] = experiment: Compound was evaluated for its analgesic activity by mouse acetic acid writhing test after subcutaneous administration at a dose 10 mg/kg; format: functional; settings: sc

SMILES: COc1ccc2c3c1OC1C=C([C@@H](O)CCCc4ccccc4)CC4C(C2)N(C)CCC314 (stereo partly drawn)
- ED50 (Mus musculus [1]): 1.6 mg/kg

SMILES: COc1ccc2c3c1OC1C=C(C=O)CC4(O)C(C2)N(C)CCC314 (stereo not drawn)
- ED50 (Mus musculus [1]): 3.6 mg/kg

SMILES: CCCC[C@@H](O)C1=CCC23CCN(C)C(Cc4ccc(OC)cc42)[C@H]3C1 (stereo partly drawn)
- ED50 (Rattus norvegicus [2]): 1.8 mg/kg
- ED50 (Mus musculus [1]): 0.0062 mg/kg

SMILES: CCCCC(C)(O)C1=CCC23CCN(C)C(Cc4ccc(OC)cc42)[C@H]3C1 (stereo partly drawn)
- ED50 (Rattus norvegicus [2]): 3.2 mg/kg
- ED50 (Mus musculus [1]): 0.0125 mg/kg

SMILES: CCCCNCC1=CC2Oc3c(OC)ccc4c3C23CCN(C)C(C4)C3C1 (stereo not drawn)
- ED50 (Mus musculus [3]): inactive

SMILES: CN1CC[C@]23c4c5ccc(O)c4O[C@H]2[C@@H](O)C=C[C@H]3[C@H]1C5.CN1CC[C@]23c4c5ccc(O)c4O[C@H]2[C@@H](O)C=C[C@H]3[C@H]1C5.O=S(=O)(O)O
- ED50 (Rattus norvegicus [2]): 7.32 mg/kg
- ED50 (Mus musculus [1]): 0.79 mg/kg

SMILES: CCCCS/C=C1\CC2C3Cc4ccc(OC)c5c4C2(CCN3C)C(O5)C1=O (stereo not drawn)
- ED50 (Rattus norvegicus [2]): > 10 mg/kg
- ED50 (Mus musculus [1]): > 10 mg/kg

SMILES: COc1ccc2c(c1)C13CCN(CC4CC4)C(C2)[C@H]1CCC(=O)C3 (stereo partly drawn)
- AD50 (Rattus norvegicus [2]): 1.3 mg/kg
- ED50 (Mus musculus [1]): > 10 mg/kg

SMILES: CCCCC(C)(O)C1=CCC23CCN(C)C(Cc4ccc(O)cc42)C3C1 (stereo not drawn)
- ED50 (Mus musculus [3]): inactive

SMILES: COc1ccc2c3c1OC1C=C(C(C)=O)CC4C(C2)N(C)CCC314 (stereo not drawn)
- ED50 (Rattus norvegicus [4]): inactive
- ED50 (Mus musculus [3]): inactive

SMILES: CCCCC(=O)C1=CCC23CCN(C)C(Cc4ccc(O)cc42)[C@H]3C1 (stereo partly drawn)
- ED50 (Rattus norvegicus [2]): 0.0135 mg/kg
- ED50 (Mus musculus [1]): 0.046 mg/kg

SMILES: COc1ccc2c3c1O[C@H]1C(=O)CC[C@H]4[C@@H](C2)N(C)CC[C@]314.O=C(O)C(O)C(O)C(=O)O
- ED50 (Mus musculus [1]): 1.06 mg/kg

SMILES: CCCC[C@H](O)C1=CCC23CCN(C)C(Cc4ccc(OC)cc42)[C@H]3C1 (stereo partly drawn)
- ED50 (Rattus norvegicus [2]): 0.3 mg/kg
- ED50 (Mus musculus [1]): 0.0058 mg/kg

SMILES: COc1ccc2c3c1OC1C=C(C=O)CC4C(C2)N(C)CCC314 (stereo not drawn)
- ED50 (Rattus norvegicus [4]): inactive
- ED50 (Mus musculus [1]): 1.45 mg/kg

SMILES: COc1ccc2c(c1)C13CC=C(C=O)C[C@@H]1C(C2)N(C)CC3.Cl (stereo partly drawn)
- ED50 (Mus musculus [5]): 4.55 mg/kg

SMILES: COc1ccc2c3c1OC1C=C([C@H](O)CCCc4ccccc4)CC4C(C2)N(C)CCC314 (stereo partly drawn)
- ED50 (Mus musculus [1]): 0.72 mg/kg

SMILES: CCCCC(O)C1=CCC23CCN(C)C(Cc4ccc(OC)cc42)[C@@H]3C1 (stereo partly drawn)
- ED50 (Mus musculus [3]): inactive

SMILES: CCCCC(O)C1=CC2Oc3c(OC)ccc4c3C23CCN(C)C(C4)C3C1 (stereo not drawn)
- ED50 (Rattus norvegicus [4]): inactive
- ED50 (Mus musculus [1]): 3.13 mg/kg

SMILES: CCCCC(=O)C1=CC2Oc3c(OC)ccc4c3C23CCN(C)C(C4)C3C1.Cl (stereo not drawn)
- ED50 (Rattus norvegicus [2]): > 10 mg/kg
- ED50 (Mus musculus [3]): inactive

SMILES: CCCCC(O)C1=CCC23CCN(CC4CC4)C(Cc4ccc(OC)cc42)[C@H]3C1 (stereo partly drawn)
- ED50 (Mus musculus [1]): 0.21 mg/kg

SMILES: COc1ccc2c3c1O[C@H]1C(=O)CC[C@@]4(O)[C@@H](C2)N(C)CC[C@]314.Cl [OXYCODONE HYDROCHLORIDE]
- ED50 (Mus musculus [1]): 0.3 mg/kg

SMILES: COc1ccc2c(c1)C13CCN(C)C(C2)C1CCC(=O)C3 (stereo not drawn)
- ED50 (Rattus norvegicus [2]): > 20 mg/kg

SMILES: COc1ccc2c3c1OC1C=C(C(C)O)CC4C(C2)N(C)CCC314 (stereo not drawn)
- ED50 (Rattus norvegicus [4]): inactive
- ED50 (Mus musculus [3]): inactive

SMILES: COc1ccc2c(c1)C13CCN(C)C(C2)[C@H]1CCC(=O)C3 (stereo partly drawn)
- ED50 (Rattus norvegicus [2]): 0.66 mg/kg
- ED50 (Mus musculus [1]): 0.49 mg/kg

SMILES: COc1ccc2c3c1OC1C(=O)/C(=C/N(C)C)CC4C(C2)N(C)CCC314 (stereo not drawn)
- ED50 (Rattus norvegicus [4]): inactive
- ED50 (Mus musculus [3]): inactive

SMILES: CCCCC(=O)C1=CCC23CCN(C)C(Cc4ccc(OC)cc42)[C@H]3C1.Cl (stereo partly drawn)
- ED50 (Mus musculus [1]): 0.82 mg/kg

SMILES: CCCCC(O)C1=CC2Oc3c(OC)ccc4c3C23CCN(C)C(C4)C3(O)C1.Cl (stereo not drawn)
- ED50 (Mus musculus [1]): 9.8 mg/kg

SMILES: CN1CC[C@]23c4c5ccc(O)c4O[C@H]2C(=O)CC[C@H]3[C@H]1C5.Cl [HYDROMORPHONE HYDROCHLORIDE]
- ED50 (Mus musculus [1]): 0.08 mg/kg

SMILES: CCCCC(C)(O)C1=CCC23CCN(C)C(Cc4ccc(OC)cc42)C3C1 (stereo not drawn)
- ED50 (Rattus norvegicus [4]): inactive
- ED50 (Mus musculus [3]): inactive

SMILES: COc1ccc2c(c1)C13CC=C(C=O)C[C@@H]1C(C2)N(C)CC3 (stereo partly drawn) [listing 1 of 2 here]
- ED50 (Mus musculus [1]): 0.28 mg/kg

SMILES: CC(=O)C1=CCC23CCN(C)C(Cc4ccc(O)cc42)C3C1 (stereo not drawn)
- ED50 (Rattus norvegicus [2]): > 10 mg/kg
- ED50 (Mus musculus [1]): > 10 mg/kg

SMILES: COc1ccc2c(c1)C13CC=C(C=O)C[C@@H]1C(C2)N(C)CC3 (stereo partly drawn) [listing 2 of 2 here]
- ED50 (Rattus norvegicus [4]): inactive
